Counter-ions that a name gives are not always drawn. Like-named read-outs stand apart in the source and are kept apart here.
Experiments:
human MATE1 = target: T1, human MATE1 (Homo sapiens, UniProt Q96FL8); test: Oxygen consumption rate (OCR) assay, HEK293 cells transfected with MATE1; settings: for inhibition at 1000 µM: HEK293, read-out: Oxygen Consumption Rate (OCR), MATE 1, % Inhibition at 1000 μM test concentration
T1 sequence (Q96FL8 1-570): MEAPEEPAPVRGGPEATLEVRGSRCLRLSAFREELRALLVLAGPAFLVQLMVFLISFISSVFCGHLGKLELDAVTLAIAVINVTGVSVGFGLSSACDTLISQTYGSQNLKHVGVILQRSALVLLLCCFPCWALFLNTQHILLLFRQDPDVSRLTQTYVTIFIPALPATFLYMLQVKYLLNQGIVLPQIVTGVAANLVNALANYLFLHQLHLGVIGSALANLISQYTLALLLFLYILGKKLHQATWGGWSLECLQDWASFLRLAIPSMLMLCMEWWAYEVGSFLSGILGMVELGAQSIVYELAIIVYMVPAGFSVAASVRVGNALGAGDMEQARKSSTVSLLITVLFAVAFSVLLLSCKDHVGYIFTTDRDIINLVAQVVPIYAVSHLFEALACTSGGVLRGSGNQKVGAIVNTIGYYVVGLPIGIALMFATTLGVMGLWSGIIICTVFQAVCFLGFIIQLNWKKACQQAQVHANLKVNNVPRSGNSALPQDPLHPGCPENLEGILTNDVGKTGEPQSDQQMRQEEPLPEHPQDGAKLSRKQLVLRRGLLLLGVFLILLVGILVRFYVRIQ
Source text: The compounds of the present invention are similarly tested in an oxygen consumption rate (OCR) assay to evaluate the functional activity of test compounds in cells.
(§1) In brief, the assay uses HEK293 cells stably transfected with the human OCT1, OCT2, OCT3, PMAT, or MATE1 transporters to determine a compound's relative transporter selectivity and its effect on the rate of oxygen consumption relative to control (Neo) cells. The MitoXpress Xtra oxygen-sensitive fluorophore is used to monitor oxygen consumption rates in the presence and absence of compound treatments. The analogs were tested at eight (8) different concentrations in triplicate to determine a relative IC50 value.
(§2) A summary description of the protocol is as follows:
(§3) Cells were incubated overnight to allow attachment. The outer columns (1 and 12) are not seeded with cells, as controls. The next day, plating medium was removed and replaced with 150 μL of assay medium (DMEM/F12 (PRF), 5% FBS, antibiotics) containing compound dilutions. A 3-fold serial dilution was prepared in the assay medium and transferred to the empty wells. The outer columns and column 11 received 150 μL of assay medium only. 10 μL of MitoXpress Xtra reagent was added to each test well, and 100 μL of pre-warmed mineral oil was overlayed in each well to create a seal. Dual read time-resolved fluorescence (BMG FluoStar Galaxy reader) was measured over 2 hours with measurements taken every 2 minutes. Excitation is 340 nm, Emission is 650 nm. For lifetime analysis, two measurements per well were taken: 1) delay of 30 μs, with a window of 30 μs; and 2) delay of 70 μs with a window of 30 μs. Background TRF values from A1-D1 were subtracted from all readings. A ratiometric analysis was performed to determine changes in the Lifetime fluorescence signal:Lifetime (μs) [T]=(D2−D1)/ln(W1/W2), where D is delay; W is fluorescence window value at each time point. Lifetime slopes were calculated using each Lifetime measurement over time. IC50 values were determined by plotting lifetime slope values vs. compound concentration.

control (Neo) cells = test: Oxygen consumption rate (OCR) assay, control (Neo) HEK293 cells; assay type: cell-based; settings: Homo sapiens, read-out: Oxygen Consumption Rate (OCR) IC50, Neo
Source text: (§4) Diabetologia 2011, 54 (12): 3101-3110, each incorporated by reference with regard to such testing. The compounds of the present invention are similarly tested in an oxygen consumption rate (OCR) assay to evaluate the functional activity of test compounds in cells.
as §1, §2
as §3, with “HEK293 cells transformed with human organic cation transporters were plated in collagen coated, 96-well black-walled microclear plates (Greiner-Bio 1, #655956) at 60,000 cells per well in growth medium (DMEM (LG), 10% FBS, 400 μg/ml G418). Cells” for “Cells”

human PMAT = target: T2, human PMAT (Homo sapiens, UniProt Q7RTT9); test: Oxygen consumption rate (OCR) assay, HEK293 cells transfected with PMAT; assay type: cell-based; settings: for inhibition at 10 µM: HEK293 cells with human PMAT
T2 construct: expressed in transfected cells; host or cells: HEK293
T2 sequence (Q7RTT9 1-530): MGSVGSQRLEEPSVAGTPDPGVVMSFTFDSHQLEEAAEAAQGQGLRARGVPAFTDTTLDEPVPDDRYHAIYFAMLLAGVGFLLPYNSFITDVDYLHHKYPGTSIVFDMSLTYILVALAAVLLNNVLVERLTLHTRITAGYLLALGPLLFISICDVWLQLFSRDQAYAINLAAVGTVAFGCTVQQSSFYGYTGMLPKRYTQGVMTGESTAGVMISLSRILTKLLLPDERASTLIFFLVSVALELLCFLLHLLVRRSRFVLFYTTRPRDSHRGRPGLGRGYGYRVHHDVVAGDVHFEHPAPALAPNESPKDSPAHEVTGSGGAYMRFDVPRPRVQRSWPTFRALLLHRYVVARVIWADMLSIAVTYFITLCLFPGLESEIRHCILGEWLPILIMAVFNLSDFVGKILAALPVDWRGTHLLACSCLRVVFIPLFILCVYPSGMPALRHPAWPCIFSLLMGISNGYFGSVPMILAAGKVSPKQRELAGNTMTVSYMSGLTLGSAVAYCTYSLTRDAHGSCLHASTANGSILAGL
Source text: as §4, §1, §2
as §3, with “HEK293 cells transformed with human organic cation transporters were plated in collagen coated, 96-well black-walled microclear plates (Greiner-Bio 1, #655956) at 60,000 cells per well in growth medium (DMEM (LG), 10% FBS, 400 μg/ml G418). Cells” for “Cells”

[1] = control (Neo) HEK293 cells, MitoXpress Xtra, 2 hours
[2] = HEK293 cells stably transfected with human PMAT, MitoXpress Xtra, 2 hours, read-out: Oxygen Consumption Rate (OCR) IC50, PMAT

| Compound | IC50 (human MATE1) [µM] | IC50 (control (Neo) cells; HEK293, 2 h) [µM] | IC50 (human PMAT) [µM] | IC50 (control (Neo) cells; [1]) [µM] | inhibition at 10 µM (human PMAT) [%] | IC50 (human PMAT; [2]) [µM] | inhibition at 1000 µM (human MATE1) [%] |
| --- | --- | --- | --- | --- | --- | --- | --- |
| N=C(N)NC(=N)NCCc1c[nH]c2c(F)c(F)c(F)c(F)c12 [Ex 42, 1-[2-(4,5,6,7-tetrafluoro-1H-indol-3-yl)ethyl]imidodicarbonimide diamide, trifluoroacetic acid salt] | 183 | 129 | 5 |  |  |  |  |
| N=C(N)NC(=N)NCCc1c[nH]c2c(Cl)cccc12 [Ex 36, 1-[2-(7-chloro-1H-indol-3-yl)ethyl]imidodicarbonimide diamide, trifluoroacetic acid salt] | 26 |  |  | 409 | 55 |  |  |
| N=C(N)NC(=N)NCCc1c[nH]c2nc(F)ccc12 [Ex 45, 1-(2-(6-fluoro-1H-pyrrolo[2,3-b]pyridin-3-yl)ethyl)imidodicarbonimide diamide, trifluoroacetic acid salt] | > 3000 |  |  | 11400 |  | 14 |  |
| Cc1ccc2[nH]cc(CCNC(=N)NC(=N)N)c2c1 [Ex 10, 1-[2-(5-methyl-1H-indol-3-yl)ethyl]imidodicarbonimide diamide trifluoroacetic acid salt] | 2190 |  |  | 439 | 43 |  |  |
| Cc1c(CCNC(=N)NC(=N)N)c2ccccc2n1C [Ex 16, 1-[2-(1,2-dimethyl-1H-indol-3-yl)ethyl]imidodicarbonimide diamide] |  |  |  | 1210 | 36 |  | 10 |
| Cc1ccc2c(CCNC(=N)NC(=N)N)c[nH]c2c1 [Ex 56, 1-[2-(6-methyl-1H-indol-3-yl)ethyl]imidodicarbonimide diamide, trifluoroacetate salt] | 769 |  |  | 895 | 43 |  |  |
| N=C(N)NC(=N)NCCc1c[nH]c2ccncc12 [Ex 22, 1-(2-(1H-pyrrolo[3,2-c]pyridin-3-yl)ethyl)imidodicarbonimide diamide hydrochloride] | 2980 |  |  | 3240 | -7 |  |  |
| N=C(N)NC(=N)NCCCc1c[nH]c2ccccc12 [Ex 7, hydrochloride] |  |  |  | > 10000 | 7 |  | 36 |
| N=C(N)NC(=N)NCCc1c[nH]c2cc(Cl)ccc12 [Ex 35, 1-[2-(6-chloro-1H-indol-3-yl)ethyl]imidodicarbonimide diamide, trifluoroacetic acid salt] | 20 |  |  | 205 | 68 |  |  |
| N=C(N)NC(=N)NCCc1c[nH]c2ncc(F)cc12 [Ex 43, 1-(2-(5-fluoro-1H-pyrrolo[2,3-b]pyridin-3-yl)ethyl)imidodicarbonimide diamide, trifluoroacetic acid salt] | 2230 |  |  | 11000 |  | 23 |  |
| N=C(N)NC(=N)NCc1c[nH]c2ccccc12 [Ex 55, 1-[(1H-indol-3-yl)methyl]imidodicarbonimide diamide, trifluoroacetic acid salt] | 1650 |  |  | 1400 | 10 |  |  |
| CC(Cc1c[nH]c2ccc(F)cc12)NC(=N)NC(=N)N (stereo not shown) [Ex 5, 1-[1-(5-fluoro-1H-indol-3-yl)propan-2-yl]imidodicarbonimide diamide] |  |  |  | 1880 | 12 |  | 65 |
| N=C(N)NC(=N)NCCc1c[nH]c2nccc(Cl)c12 [Ex 46, 1-(2-(4-chloro-1H-pyrrolo[2,3-b]pyridin-3-yl)ethyl)imidodicarbonimide diamide, trifluoroacetic acid salt] | 335 |  |  | 2640 |  |  |  |
| N=C(N)NC(=N)NCCc1c[nH]c2cc(F)cc(F)c12 [Ex 61, 1-[2-(4,6-difluoro-1H-indol-3-yl)ethyl]imidodicarbonimide diamide, trifluoroacetic acid salt] | 62 |  |  | 333 |  |  |  |
| N=C(N)NC(=N)NCCc1c[nH]c2ncc(Cl)cc12 [Ex 40, 1-(2-(5-chloro-1H-pyrrolo[2,3-b]pyridin-3-yl)ethyl)imidodicarbonimide diamide, trifluoroacetic acid salt] | 1470 |  |  | > 1000 |  |  |  |
| CN(C)C(=N)NC(=N)NCCc1c[nH]c2nc(F)ccc12 [Ex. 54, 3-(2-(6-fluoro-1H-pyrrolo[2,3-b]pyridin-3-yl)ethyl)-1,1-dimethyl imidodicarbonimide diamide trifluoroacetic acid salt] | 4950 |  |  | 4600 |  |  |  |
| N=C(N)NC(=N)NCCc1c[nH]c2c(F)c(Cl)ccc12 [Ex 51, 1-[2-(6-chloro-7-fluoro-1H-indol-3-yl)ethyl]imidodicarbonimide diamide, trifluoroacetic acid salt] | 597 |  |  | 542 |  |  |  |
| N=C(N)NC(=N)NCCc1c[nH]c2c(Cl)cc(F)cc12 [Ex 38, 1-[2-(7-chloro-5-fluoro-1H-indol-3-yl)ethyl]imidodicarbonimide diamide, trifluoroacetic acid salt] | 2050 |  |  | 8760 |  |  |  |
| CN(C)C(=N)NC(=N)NCCc1c[nH]c2ccc(Cl)cc12 [Ex 53, 3-(2-(5-chloro-1H-indol-3-yl)ethyl)-1,1-dimethyl imidodicarbonimide diamide trifluoroacetic acid salt] | 398 |  |  | 422 |  |  |  |
| N=C(N)NC(=N)NCCc1cn(CCO)c2ccccc12 [Ex 13, 1-[2-(1-(2-hydroxyethyl)-1H-indol-3-yl)ethyl]imidodicarbonimide diamide trifluoroacetic acid salt] |  |  |  | 2520 |  |  | 22 |
